What was measured:
[1] = system: Dopamine DBS Cy3(+T)–BHQ-1 Terminal (DNA, aptamer) AAATACAACAAGAAAAAACTCTCGGGACGACGTACCAGTTTGAAGGTTCGTTCGCAGGTGTGGAGTGACGTCGTCCC; test: fluorescence strand-displacement titration; settings: 1x PBS, 2 mM MgCl2; apparent; pH 8.0, 25 °C; displaced 43-nt strand, 5'-BHQ-1 plus T, 4 eq
[2] = system: Dopamine DBS FAM(+T)/BHQ-1 (term.) (DNA, aptamer, 6-FAM-modified dT (click, i6-FAMK) at 33) AAATACAACAAGAAAAAACTCTCGGGACGACGTCCAGTTTGAAGGTTCGTTCGCAGGTGTGGAGTGACGTCGTCCC; test: fluorescence melting; settings: 1x PBS, 2 mM MgCl2; pH 8.0; 50 µM dopamine; derived from two Tm (48.4, 48.3); displacement strand 1:4
[3] = system: Dopamine DBS FAM(+T)–BHQ-1 Internal (DNA, aptamer, 6-FAM-dT (azide click) at 33) AAATACAACAAGAAAAAACTCTCGGGACGACGTACCAGTTTGAAGGTTCGTTCGCAGGTGTGGAGTGACGTCGTCCC; test: fluorescence strand-displacement titration; settings: 1x PBS, 2 mM MgCl2; apparent; pH 8.0, 25 °C; displaced 42-nt strand, internal BHQ-1, 4 eq
[4] = system: Dopamine DBS FAM(+T)–BHQ-1 Terminal (DNA, aptamer, 6-FAM-dT (azide click) at 33) AAATACAACAAGAAAAAACTCTCGGGACGACGTACCAGTTTGAAGGTTCGTTCGCAGGTGTGGAGTGACGTCGTCCC; test: fluorescence strand-displacement titration; settings: 1x PBS, 2 mM MgCl2; apparent; pH 8.0, 25 °C; displaced 43-nt strand, 5'-BHQ-1 plus T, 4 eq
[5] = system: Dopamine MAB BHQ-1–FAM (DNA, aptamer) ACGCCAGTTTGAAGGTTCGTTCGCAGGTGTGGAGTGACGT; test: fluorescence quenching titration (molecular aptamer beacon); settings: 1x PBS, 2 mM MgCl2; apparent; pH 8.0, 25 °C
[6] = system: Dopamine DBS FAM(+T)/BHQ-1 (int.) (DNA, aptamer, 6-FAM-modified dT (click, i6-FAMK) at 33) AAATACAACAAGAAAAAACTCTCGGGACGACGTCCAGTTTGAAGGTTCGTTCGCAGGTGTGGAGTGACGTCGTCCC; test: fluorescence melting; settings: 1x PBS, 2 mM MgCl2; pH 8.0; 50 µM dopamine; derived from two Tm (49.1, 49.3); displacement strand 1:4
[7] = system: Dopamine MAB FAM–Dab (DNA, aptamer, dabcyl-5-methyl-dC at 41 (3' end)) ACGCCAGTTTGAAGGTTCGTTCGCAGGTGTGGAGTGACGTC; test: fluorescence quenching titration (molecular aptamer beacon); settings: 1x PBS, 2 mM MgCl2; apparent; pH 8.0, 25 °C
[8] = system: Dopamine DBS BHQ-1/Cy3 (1:1) (DNA, aptamer) AAATACAACAAGAAAAAACTCTCGGGACGACGCCAGTTTGAAGGTTCGTTCGCAGGTGTGGAGTGACGTCGTCCC; test: fluorescence melting; settings: 1x PBS, 2 mM MgCl2; pH 8.0; 50 µM dopamine; derived from two Tm (51.0, 50.6); displacement strand 1:1
[9] = system: Dopamine DBS Cy3–BHQ-1 (Position 1/Adjacent) (DNA, aptamer) AAATACAACAAGAAAAAACTCTCGGGACGACGACCAGTTTGAAGGTTCGTTCGCAGGTGTGGAGTGACGTCGTCCC; test: fluorescence melting; settings: 1x PBS, 2 mM MgCl2; derived from two Tm (51.7 ± 0.1, 50.9 ± 0.1) of aptamer–displacement duplex; 50 µM dopamine, pH 8.0
[10] = system: Dopamine MAB Cy3–BHQ-1 (DNA, aptamer) ACGCCAGTTTGAAGGTTCGTTCGCAGGTGTGGAGTGACGT; test: fluorescence melting; settings: 1x PBS, 2 mM MgCl2; derived from two Tm (49.5 ± 0.3, 52.7 ± 0.8); 50 µM dopamine, pH 8.0
[11] = system: Dopamine MAB FAM–Dab (DNA, aptamer, dabcyl-5-methyl-dC at 41 (3' end)) ACGCCAGTTTGAAGGTTCGTTCGCAGGTGTGGAGTGACGTC; test: fluorescence melting; settings: 1x PBS, 2 mM MgCl2; derived from two Tm (41.7 ± 0.2, 36.9 ± 0.1); 50 µM dopamine, pH 8.0
[12] = system: Dopamine DBS FAM(+T)–BHQ-1 (Position 1) (DNA, aptamer, 6-FAM-dT (azide click) at 33) AAATACAACAAGAAAAAACTCTCGGGACGACGTACCAGTTTGAAGGTTCGTTCGCAGGTGTGGAGTGACGTCGTCCC; test: fluorescence strand-displacement titration; settings: 1x PBS, 2 mM MgCl2; apparent; pH 8.0, 25 °C; displaced 42-nt 5'-BHQ-1 strand, 4 eq
[13] = system: Dopamine DBS Cy3/BHQ-1 (term.) (DNA, aptamer) AAATACAACAAGAAAAAACTCTCGGGACGACGCCAGTTTGAAGGTTCGTTCGCAGGTGTGGAGTGACGTCGTCCC; test: fluorescence melting; settings: 1x PBS, 2 mM MgCl2; pH 8.0; 50 µM dopamine; derived from two Tm (51.2, 50.6); displacement strand 1:4
[14] = system: Dopamine DBS Cy3(+T)/BHQ-1 (term.) (DNA, aptamer) AAATACAACAAGAAAAAACTCTCGGGACGACGTCCAGTTTGAAGGTTCGTTCGCAGGTGTGGAGTGACGTCGTCCC; test: fluorescence melting; settings: 1x PBS, 2 mM MgCl2; pH 8.0; 50 µM dopamine; derived from two Tm (50.8, 50.0); displacement strand 1:4
[15] = system: Dopamine DBS Cy3(+T)–IABkFQ (DNA, aptamer) AAATACAACAAGAAAAAACTCTCGGGACGACGTACCAGTTTGAAGGTTCGTTCGCAGGTGTGGAGTGACGTCGTCCC; test: fluorescence strand-displacement titration; settings: 1x PBS, 2 mM MgCl2; apparent; pH 8.0, 25 °C; displaced 42-nt 5'-IABkFQ strand, 4 eq

- Kd [1]: 40.1 ± 5.0 µM
- Tm [2]: -0.1 °C
- Kd [3]: 7.5 ± 0.9 µM
- Kd [4]: 10.2 ± 1.0 µM
- Kd [5]: 5.3 ± 0.8 µM
- Tm [6]: 0.2 °C
- Kd [7]: 3.2 ± 0.2 µM
- Tm [8]: -0.4 °C
- Tm [9]: -0.8 °C
- Tm [10]: 3.2 °C
- Tm [11]: -4.8 °C
- Kd [12]: 6.1 ± 0.7 µM
- Tm [13]: -0.6 °C
- Tm [14]: -0.8 °C
- Kd [15]: 41.8 ± 5.0 µM
Compound: NCCc1ccc(O)c(O)c1
